Results on one compound are retold here after article PMC8438627 (The Journal of Cell Biology, 2021).

Each structure is given as a SMILES string.

The experiment relates to NAP1L4. In words: IP-IB of HA-tagged. The format is binding. Conditions: HA-tagged (PR)12 mixed with HEK293 cell lysates containing increasing concentrations of 1,6-hexanediol.

For `OCCCCCCO` [1,6-hexanediol], the “immunoprecipitated NAP1L4 signal with increasing 1,6-hexanediol” value is listed as “faded accordingly”.
